Like-named read-outs stand apart in the source and are kept apart here.
Key:
Test in all cases: microbe, parasite or virus in culture
Type in all cases: cell-based, Hepatitis C virus (HCV)
HCV replicon 2B = details: Replicon Assay A
Procedure, shortened: (§1)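 HCV RNA levels were calculated from Ct values (minus intercept, divided by slope) of a Neo primer/probe standard curve, with cyclophilin quantified the same way. Cells were seeded at 2000/well and incubated with compound for 3 days in 5% serum and 0.5% DMSO.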

HCV replicon 1A = details: replicon 1A, Replicon Assay A
Procedure, shortened: as §1

HCV replicon 1AY93H = details: Replicon Assay A
Procedure, shortened: as §1

HCV replicon 1B = details: replicon 1B, Replicon Assay B
HCV replicon 1AQ30D = details: Replicon Assay B
[1] = replicon 1AY93H, read-out: 1A Y93H IC50
[2] = replicon 1AQ30D, read-out: 1A Q30D IC50
[3] = Hepatitis C virus, read-out: 2B IC50 (nM), replicon 2B
[4] = Hepatitis C virus, read-out: 1A Y93H IC50 (nM), replicon 1AY93H
[5] = Hepatitis C virus, read-out: 1A Q30D IC50 (nM), replicon 1AQ30D
[6] = read-out: 1A Y93H IC50, replicon 1AY93H
[7] = read-out: 1A Q30D IC50, replicon 1AQ30D

SMILES	IC50 (HCV replicon 2B; replicon 2B, read-out: 2B IC50) [nM]	IC50 (HCV replicon 1A) [nM]	IC50 (HCV replicon 1AY93H; [1]) [nM]	IC50 (HCV replicon 1B) [nM]	IC50 (HCV replicon 1AQ30D; [2]) [nM]	IC50 (HCV replicon 2B; [3]) [nM]	IC50 (HCV replicon 1A; Hepatitis C virus) [nM]	IC50 (HCV replicon 1AY93H; [4]) [nM]	IC50 (HCV replicon 1B; Hepatitis C virus) [nM]	IC50 (HCV replicon 1AQ30D; [5]) [nM]	IC50 (HCV replicon 2B; read-out: 2B IC50, replicon 2B) [nM]	IC50 (HCV replicon 1AY93H; [6]) [nM]	IC50 (HCV replicon 1AQ30D; [7]) [nM]
COC(=O)N[C@H](C(=O)N1CCC[C@H]1c1ncc(-c2cc(F)c3c(c2)OC(c2ccc(C(F)F)s2)n2c-3cc3cc(-c4cnc([C@@H]5CCCN5C(=O)[C@@H](NC(=O)OC)C(C)C)[nH]4)ccc32)[nH]1)C(C)C (single isomer, unassigned) [Compound 45]	0.044	0.0011	0.01	0.0011	0.37								
COC(=O)N[C@H](C(=O)N1CCC[C@H]1c1ncc(-c2cc(F)c3c(c2)OC(c2ccc(C(F)F)s2)n2c-3cc3cc(-c4cnc([C@@H]5CCCN5C(=O)[C@@H](NC(=O)OC)C(C)C)[nH]4)ccc32)[nH]1)C(C)C (single isomer, unassigned) [Compound 46]						1.79	0.0029	2.6	0.001	17.1			
COC(=O)N[C@H](C(=O)N1CCC[C@H]1c1ncc(-c2cc(F)c3c(c2)OC(c2cc4nccnc4s2)n2c-3cc3cc(-c4cnc([C@@H]5CCCN5C(=O)[C@@H](NC(=O)OC)C(C)C)[nH]4)ccc32)[nH]1)C(C)C (single isomer, unassigned) [Compound 48]		0.0019							0.0017	0.54	0.016	0.027	
COC(=O)N[C@H](C(=O)N1CCC[C@H]1c1ncc(-c2cc(F)c3c(c2)OC(c2ccc(CC4CC4)s2)n2c-3cc3cc(-c4cnc([C@@H]5CCCN5C(=O)[C@@H](NC(=O)OC)C(C)C)[nH]4)ccc32)[nH]1)C(C)C (single isomer, unassigned) [Compound 54]	0.03	0.002	0.005	0.0012	0.2								
COC(=O)N[C@H](C(=O)N1CCC[C@H]1c1ncc(-c2cc(F)c3c(c2)OC(c2ccc(C4(O)CC4)s2)n2c-3cc3cc(-c4cnc([C@@H]5CCCN5C(=O)[C@@H](NC(=O)OC)C(C)C)[nH]4)ccc32)[nH]1)C(C)C (single isomer, unassigned) [Compound 60]						0.023	0.0015	0.014	0.0013	0.35			
COC(=O)N[C@H](C(=O)N1CCC[C@H]1c1ncc(-c2cc(F)c3c(c2)OC(c2ccc(C(C)(C)C)s2)n2c-3cc3cc(-c4cnc([C@@H]5CCCN5C(=O)[C@@H](NC(=O)OC)C(C)C)[nH]4)ccc32)[nH]1)C(C)C (single isomer, unassigned) [Compound 63]	0.27	0.0032	0.01	0.0024	0.34								
COC(=O)N[C@H](C(=O)N1CCC[C@H]1c1ncc(-c2cc(F)c3c(c2)OC(c2cc(F)c(C4CC4)s2)n2c-3cc3cc(-c4cnc([C@@H]5CCCN5C(=O)[C@@H](NC(=O)OC)C(C)C)[nH]4)ccc32)[nH]1)C(C)C (single isomer, unassigned) [Compound 72]		0.0026							0.0015	0.78	0.089	0.01	
COC(=O)NC(C(=O)N1CCC[C@H]1c1ncc(-c2ccc3c(c2)cc2n3C(c3ccc(C4CC4)s3)Oc3cc(-c4cnc([C@@H]5CCCN5C(=O)[C@@H](NC(=O)OC)C(C)C)[nH]4)cc(F)c3-2)[nH]1)C(C)(C)F (single isomer, unassigned) [Compound 75]		0.003							0.0031	0.27	0.041	0.021	
COCCc1ccc(C2Oc3cc(-c4cnc([C@@H]5CCCN5C(=O)[C@@H](NC(=O)OC)C(C)C)[nH]4)cc(F)c3-c3cc4cc(-c5cnc([C@@H]6CCCN6C(=O)[C@@H](NC(=O)OC)C(C)C)[nH]5)ccc4n32)s1 (single isomer, unassigned) [Compound 82]	0.15	0.0011	0.014	0.0013	0.26								
COC(=O)N[C@H](C(=O)N1CCC[C@H]1c1ncc(-c2cc(F)c3c(c2)OC(c2ccc(C(C)(C)O)s2)n2c-3cc3cc(-c4cnc([C@@H]5CCCN5C(=O)[C@@H](NC(=O)OC)C(C)C)[nH]4)ccc32)[nH]1)C(C)C (single isomer, unassigned) [Compound 84]		0.0033		0.0025						0.5	0.012	0.012	
COC(=O)N[C@H](C(=O)N1CCC[C@H]1c1ncc(-c2cc(F)c3c(c2)OC(c2ccc(C#CC4CC4)s2)n2c-3cc3cc(-c4cnc([C@@H]5CCCN5C(=O)[C@@H](NC(=O)OC)C(C)C)[nH]4)ccc32)[nH]1)C(C)C (single isomer, unassigned) [Compound 86]		0.0016							0.0016	0.11	0.033	0.003	
COC(=O)N[C@H](C(=O)N1[C@@H]2C[C@@H]2C[C@H]1c1ncc(-c2cc(F)c3c(c2)OC(c2ccc(C4CC4)s2)n2c-3cc3cc(-c4cnc([C@@H]5C[C@H]6C[C@H]6N5C(=O)[C@@H](NC(=O)OC)C(C)C)[nH]4)ccc32)[nH]1)C(C)C (single isomer, unassigned) [Compound 87]							0.0012		0.0013	0.15	0.19	0.002	
COC(=O)N[C@H](C(=O)C1CCC[C@H]1c1ncc(-c2ccc3c(c2)cc2n3C(c3ccc(C(F)(F)F)s3)Oc3cc(-c4cnc([C@@H]5CCCN5C(=O)[C@@H](NC(=O)OC)C(C)C)[nH]4)cc(F)c3-2)[nH]1)C(C)C (single isomer, unassigned) [Compound 89]							0.001		0.0015	0.33	0.063	0.033	
COC(=O)N[C@H](C(=O)N1CCC[C@H]1c1ncc(-c2cc(F)c3c(c2)OC(c2ccc(C(=O)N(C)C)s2)n2c-3cc3cc(-c4cnc([C@@H]5CCCN5C(=O)[C@@H](NC(=O)OC)C(C)C)[nH]4)ccc32)[nH]1)C(C)C (single isomer, unassigned) [Compound 104]		0.0043							0.0051	1.11	0.073	0.046	
COC(=O)NC(C(=O)N1CCC[C@H]1c1ncc(-c2cc(F)c3c(c2)OC(c2ccc(C)s2)n2c-3cc3cc(-c4cnc([C@@H]5CCCN5C(=O)[C@@H](NC(=O)OC)C5CCOCC5)[nH]4)ccc32)[nH]1)C(C)(C)F (single isomer, unassigned) [Compound 105]	0.012	0.0015	0.01	0.0029	0.03								
COC(=O)NC(C(=O)N1CCC[C@H]1c1ncc(-c2cc(F)c3c(c2)OC(c2ccc(C)s2)n2c-3cc3cc(-c4cnc([C@@H]5CCCN5C(=O)[C@@H](NC(=O)OC)C5CCOCC5)[nH]4)ccc32)[nH]1)C(C)(C)F (single isomer, unassigned) [Compound 106]						0.35	0.0021	0.16	0.0015				0.03
COC(=O)NC(C(=O)N1CCC[C@H]1c1ncc(-c2cc(F)c3c(c2)OC(c2ccc(C)s2)n2c-3cc3cc(-c4cnc([C@@H]5CCCN5C(=O)[C@@H](NC(=O)OC)C5CCOCC5)[nH]4)ccc32)[nH]1)C(C)(C)F (single isomer, unassigned) [Compound 108]		0.0026		0.0027							0.29	0.25	1.15
COC(=O)NC(C(=O)N1CCC[C@H]1c1ncc(-c2cc(F)c3c(c2)OC(c2ccc(C4CC4)s2)n2c-3cc3cc(-c4cnc([C@@H]5CCCN5C(=O)C(NC(=O)OC)C(C)(C)F)[nH]4)ccc32)[nH]1)C(C)(C)F (single isomer, unassigned) [Compound 111]		0.0032							0.0017	0.13	0.038	0.074	
COC(=O)N[C@H](C(=O)N1CCC[C@H]1c1ncc(-c2ccc3c(c2)cc2n3C(c3ccc(C4CC4)s3)Oc3cc(-c4cnc([C@@H]5CCCN5C(=O)[C@@H](NC(=O)OC)C5CCOCC5)[nH]4)cc(C)c3-2)[nH]1)C(C)C (single isomer, unassigned) [Compound 122]							0.002		0.0023		0.003	0.007	0.029

From patent US20160257697A1, “THIOPHENE-SUBSTITUTED TETRACYCLIC COMPOUNDS AND METHODS OFUSE THEREOF FOR THE TREATMENT OF VIRAL DISEASES” (priority 2013, published 2016)
